Laboratory results reported in ChEMBL document CHEMBL4118135, “Optimized allosteric inhibition of engineered protein tyrosine phosphatases with an expanded palette of biarsenical small molecules” (Bioorg Med Chem, 2018).
Positions count from the first letter of the chain named. Activity calls are given as the source filed them. The calls are words filed in the database; no cut-off is given here.

What was measured:
[1] = test system: T1, Tyrosine-protein phosphatase non-receptor type 1 (Homo sapiens), P18031 [P87C,A122C]; assay: Binding affinity to allosterically sensitized His6-tagged human PTP1B catalytic domain P87C/A122C mutant overexpressed in Escherichia coli crude cell lysate incubated for 90 mins by SDS-PAGE and LC-MS/MS method
T1 sequence (whole entry): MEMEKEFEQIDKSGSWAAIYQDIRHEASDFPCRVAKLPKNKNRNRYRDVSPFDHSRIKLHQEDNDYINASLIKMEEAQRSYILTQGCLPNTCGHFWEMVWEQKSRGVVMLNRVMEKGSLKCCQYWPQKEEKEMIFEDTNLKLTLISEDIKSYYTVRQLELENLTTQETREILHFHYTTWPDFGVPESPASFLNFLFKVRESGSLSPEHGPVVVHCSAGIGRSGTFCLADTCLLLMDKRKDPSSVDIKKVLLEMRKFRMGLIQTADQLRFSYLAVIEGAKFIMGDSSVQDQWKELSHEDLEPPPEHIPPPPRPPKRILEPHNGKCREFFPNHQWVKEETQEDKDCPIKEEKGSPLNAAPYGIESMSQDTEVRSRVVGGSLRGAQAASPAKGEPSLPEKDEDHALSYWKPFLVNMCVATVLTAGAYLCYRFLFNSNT

[2] = test system: T1, Tyrosine-protein phosphatase non-receptor type 1 (Homo sapiens), P18031 [P87C,A122C]; assay: Binding affinity to allosterically sensitized His6-tagged human PTP1B catalytic domain P87C/A122C mutant overexpressed in Escherichia coli BL21(DE3) cells at 25 to 100 uM after 90 mins by SDS-PAGE and LC-MS/MS method
[3] = test system: T2, Tyrosine-protein phosphatase non-receptor type 7 (Homo sapiens), P35236 [P171C,V205C]; assay: Inhibition of allosterically sensitized mutant form of His6-tagged human HePTP catalytic domain using pNPP as substrate incubated for 90 mins by quenched phosphatase activity assay
T2 sequence (whole entry): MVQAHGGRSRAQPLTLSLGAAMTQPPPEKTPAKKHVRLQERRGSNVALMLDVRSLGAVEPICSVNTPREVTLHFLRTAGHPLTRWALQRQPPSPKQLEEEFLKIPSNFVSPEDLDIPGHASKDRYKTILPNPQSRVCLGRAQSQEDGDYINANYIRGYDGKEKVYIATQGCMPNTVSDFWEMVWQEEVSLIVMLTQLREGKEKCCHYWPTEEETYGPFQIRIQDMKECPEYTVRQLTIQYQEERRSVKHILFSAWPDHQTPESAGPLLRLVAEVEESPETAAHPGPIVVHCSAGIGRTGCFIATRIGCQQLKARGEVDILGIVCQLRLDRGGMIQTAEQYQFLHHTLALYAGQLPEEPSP

[4] = test system: T2, Tyrosine-protein phosphatase non-receptor type 7 (Homo sapiens), P35236 [P171C,V205C]; assay: Inhibition of allosterically sensitized mutant form of His6-tagged human HePTP catalytic domain at 1 uM using pNPP as substrate measured up to 10 mins by quenched phosphatase activity assay
[5] = test system: T2, Tyrosine-protein phosphatase non-receptor type 7 (Homo sapiens), P35236 [P171C,V205C]; assay: Binding affinity to allosterically sensitized mutant form of His6-tagged human HePTP catalytic domain overexpressed in Escherichia coli crude cell lysate at 25 to 100 uM using pNPP as substrate after 90 mins by SDS-PAGE and LC-MS/MS method
[6] = target: T3, Tyrosine-protein phosphatase non-receptor type 7 (Homo sapiens) (UniProt P35236); assay: Inhibition of His6-tagged human wild-type HePTP catalytic domain overexpressed in Escherichia coli BL21(DE3) cells at 100 uM using pNPP as substrate incubated for 90 mins by quenched phosphatase activity assay
T3 sequence (whole entry): T2 sequence (whole entry) with C171P, C205V

[7] = test system: T2, Tyrosine-protein phosphatase non-receptor type 7 (Homo sapiens), P35236 [P171C,V205C]; assay: Inhibition of allosterically sensitized mutant form of His6-tagged human HePTP catalytic domain overexpressed in Escherichia coli BL21(DE3) cells using pNPP as substrate incubated for 90 mins by quenched phosphatase activity assay
[8] = test system: T2, Tyrosine-protein phosphatase non-receptor type 7 (Homo sapiens), P35236 [P171C,V205C]; assay: Binding affinity to allosterically sensitized mutant form of His6-tagged human HePTP catalytic domain overexpressed in Escherichia coli BL21(DE3) cells at 50 to 100 uM after 90 mins by SDS-PAGE analysis
[9] = target: T4, Tyrosine-protein phosphatase non-receptor type 11 (Homo sapiens) (UniProt Q06124); assay: Inhibition of allosterically sensitized mutant form of His6-tagged human SHP2 catalytic domain using pNPP as substrate after 90 mins by quenched phosphatase activity assay
T4 sequence (whole entry): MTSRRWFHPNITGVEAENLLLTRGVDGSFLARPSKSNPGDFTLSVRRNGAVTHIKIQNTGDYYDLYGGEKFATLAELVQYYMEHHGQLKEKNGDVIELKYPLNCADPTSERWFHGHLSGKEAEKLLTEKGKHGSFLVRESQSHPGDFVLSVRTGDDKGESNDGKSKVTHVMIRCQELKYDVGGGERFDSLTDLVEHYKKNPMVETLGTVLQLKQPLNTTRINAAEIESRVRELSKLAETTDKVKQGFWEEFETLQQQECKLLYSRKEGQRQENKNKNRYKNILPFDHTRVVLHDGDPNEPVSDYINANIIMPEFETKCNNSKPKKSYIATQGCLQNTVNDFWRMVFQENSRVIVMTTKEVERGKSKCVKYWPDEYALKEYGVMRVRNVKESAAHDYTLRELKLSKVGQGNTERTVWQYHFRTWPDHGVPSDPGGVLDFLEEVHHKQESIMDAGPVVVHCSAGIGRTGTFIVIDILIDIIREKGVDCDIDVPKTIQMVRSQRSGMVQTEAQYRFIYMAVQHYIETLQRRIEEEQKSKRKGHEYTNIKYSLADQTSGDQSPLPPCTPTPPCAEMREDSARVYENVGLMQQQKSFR

SMILES	Activity [1]	Activity [2]	inhibition [3]	inhibition [4] [%]	Activity [5]	inhibition [6]	inhibition [7]	Activity [8]	inhibition [9]
CC1(C)C(/C=C/C=C2/N(CCCCS(=O)(=O)O)c3ccc([As]4SCCS4)cc3C2(C)C)=[N+](CCCCS(=O)(=O)O)c2ccc([As]3SCCS3)cc21	Dose-dependent effect	Active	–	–	–	–	–	–	–
O=C(O)c1ccccc1-c1c2ccc(=O)c([As]3SCCS3)c-2oc2c([As]3SCCS3)c(O)ccc12	–	–	Dose-dependent effect	50	Active	inactive	Dose-dependent effect	Active	Dose-dependent effect
